Measurements reported in publication PMC10726367 (Journal of Medicinal Chemistry, 2023).
Entries after “also recorded” stand apart in the source; their conditions may differ.

Tests used:
[1] = molecular target: T1, SERCA2a (Mus musculus, UniProt O55143); experiment: Caffeine-induced Ca2+ release assay in HL-1 cells (FLIPR Calcium 6); assay type: cell-based; settings: for SERCA2a HL-1 effect class: 10 μM (25 μM for 11d), caffeine assay; for effect on caffeine-induced Ca2+ release (in words): 2 h incubation at various concentrations
T1 construct: host or cells: HL-1 cells
Source text: It is known that caffeine stimulates the release of calcium from intracellular stores in cells by acting as a RyR activator.[39],[40] The binding site for caffeine is located on the cytosolic side of the protein between the C-terminal and the S2S3 domain.[41] When caffeine binds to RyR2, it interacts with specific amino acids on the protein, which causes conformational changes in the protein’s structure.[42] This opens the RyR2 channel pore, enabling the mass release of calcium ions from the SR. We investigated the effect of caffeine-induced Ca^2+ release in HL-1 cells treated with cytosolic Ca^2+ indicator FLIPR Calcium 6 (Molecular Devices). The HL-1 cell line is an immortalized mouse cardiomyocyte cell line commonly used to study the effects of various substances on cell function.[43] If the tested compound modulates SERCA2a activation, it will cause an increase in Ca^2+ concentration in the SR and the effect of a fixed dose of caffeine on SR Ca^2+ release will be potentiated by increasing doses of a proposed SERCA activator.[26] As a positive control, we used CDN1163, a small-molecule SERCA activator, which is at present in a clinical trial due to its potential therapeutic use for certain cardiac conditions.[27]
HL-1 cells (50,000 per well) were cultivated for 24 h in black-walled, clear-bottom 96-well microplates (Corning, Amsterdam, The Netherlands) covered with fibronectin/gelatin (Merck KGaA, Darmstadt, Germany) in a humidified incubator at 37 °C and 5% CO2.
Changes in Ca^2+ concentration were measured on a multiwell plate reader TECAN Spark 20 M using a FLIPR 6 Calcium Assay Kit from Molecular Devices (Molecular Devices LLC, München, Germany) at 37 °C. The 1000 × stock solutions of the test compounds were prepared in DMSO. A 100 μL solution of test compound in Tyrode’s solution containing FLIPR Calcium 6 dye was incubated for 2 h at 37 °C and 5% CO2 in a humidified incubator. The time courses were recorded in each well. Fluorescence was evoked at 485 nm excitation wavelength and read out in a bottom-read mode at 525 nm. Data were recorded every 2 s, exposure −20 flashes, excitation bandwidth −10 nm, emission bandwidth −15 nm. To initiate Ca^2+ influx, 25 μL of 50 mM caffeine solution in Tyrode’s solution containing 2 mM CaCl2 was injected in each well (speed 100 μL/s) at the 10 s time point, resulting in 10 mM final concentration in the well. The differences between the caffeine-induced peak minus basal fluorescence, ΔFCaff, were taken into account for the analysis. The Tyrode’s solution +0.1 v/v% DMSO was used as a control. The dose–response curves were calculated using the software package GraphPad Prism version 8.3.1. All data are presented as mean ± SD from eight independent experiments. Y = bottom + (top – bottom)/(1 + 10^((LogEC50 – X) × HillSlope)) was used, where HillSlope describes the steepness of the curve and top and bottom are plateaus in the units of the Y axis.

[2] = Membrane permeability, PermeaPad Plate (cell-free transport model); assay type: in vitro ADME; settings: for Pe: 24 h, room temperature; for Pe class (low/medium/high; poor): class word printed beside Pe, no key given
Description: Membrane permeability was assessed using PermeaPad Plate according to the manufacturing procedure (innoME GmbH, Espelkamp, Germany). Briefly, 200 μL of water was added into the acceptor plate. 200 μL of 100–500 μM test compound in water was added directly to the well membranes of the donor plate. The donor plate contains a biomimetic membrane for simulating passive mass transfer through different barriers in the body. Then, the donor plate was placed into the acceptor plate wells and incubated at room temperature for 24 h in the dark. To determine the peak absorbance of test compounds, absorbance spectra of acceptor solutions and initial solutions for each test compound were read out. The permeability rate (Pe) was calculated using the formula:
[drawing 1] , where ODA is the absorbance of acceptor solution and ODE is the absorbance of the standard solution; if the compound is able to permeabilize the membrane and fully reach equilibrium, 250 μM will be the final concentration of solution in the donor and acceptor wells. The coefficient C was calculated using the formula:
[drawing 2] , where VA is the acceptor volume (cm^3), VD is the donor volume (cm^3), the membrane area is 0.24 cm^2, and the time is 86,400 s.

T1 sequence (O55143 1-998 isoform O55143-2): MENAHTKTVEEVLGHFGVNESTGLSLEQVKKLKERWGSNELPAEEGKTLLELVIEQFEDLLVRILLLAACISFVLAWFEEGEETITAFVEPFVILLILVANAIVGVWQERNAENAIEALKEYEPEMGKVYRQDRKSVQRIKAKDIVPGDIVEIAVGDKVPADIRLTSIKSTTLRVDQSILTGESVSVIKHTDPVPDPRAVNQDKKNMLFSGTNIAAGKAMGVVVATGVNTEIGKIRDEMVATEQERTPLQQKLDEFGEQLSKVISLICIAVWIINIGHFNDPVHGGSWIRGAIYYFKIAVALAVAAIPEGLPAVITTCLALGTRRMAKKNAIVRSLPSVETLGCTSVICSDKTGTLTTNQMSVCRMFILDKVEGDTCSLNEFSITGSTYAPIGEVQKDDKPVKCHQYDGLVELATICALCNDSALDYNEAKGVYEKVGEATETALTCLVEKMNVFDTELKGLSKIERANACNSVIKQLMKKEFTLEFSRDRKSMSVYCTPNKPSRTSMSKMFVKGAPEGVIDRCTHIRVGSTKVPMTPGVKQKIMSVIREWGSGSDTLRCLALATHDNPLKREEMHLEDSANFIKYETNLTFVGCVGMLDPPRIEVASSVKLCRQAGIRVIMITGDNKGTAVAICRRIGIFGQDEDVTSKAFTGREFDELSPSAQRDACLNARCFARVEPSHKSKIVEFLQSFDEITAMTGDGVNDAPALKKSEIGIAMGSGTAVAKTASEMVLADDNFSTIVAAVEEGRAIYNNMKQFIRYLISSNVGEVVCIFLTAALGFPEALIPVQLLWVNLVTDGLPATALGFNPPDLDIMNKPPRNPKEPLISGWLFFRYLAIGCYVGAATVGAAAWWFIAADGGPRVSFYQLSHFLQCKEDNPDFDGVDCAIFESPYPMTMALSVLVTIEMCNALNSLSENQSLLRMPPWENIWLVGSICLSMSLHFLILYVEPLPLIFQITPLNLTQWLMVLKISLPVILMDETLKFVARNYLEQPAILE

## COc1ccc2c(c1)CN(CCCCNCCCCC1(O)CC1)CCS2 [11a, 1-(4-((4-(7-Methoxy-2,3-dihydrobenzo[1,4-f]thiazepin-4(5H)-yl)butyl)amino)butyl)cyclopropan-1-ol]
[1]
  SERCA2a HL-1 effect class: +
[1]; HL-1 cells, 10 mM caffeine
  effect on caffeine-induced Ca2+ release (in words): most potent
[2]
  Pe: 0.8 10^–6 cm/s
  Pe class (low/medium/high; poor): poor permeability and low

## COc1ccc(OCCCNCCCCC2(O)CC2)cc1 [11b, 1-(4-((3-(4-Methoxyphenoxy)propyl)amino)butyl)cyclopropan-1-ol]
[1]
  SERCA2a HL-1 effect class: ++
[2]
  Pe: 4.0 10^–6 cm/s
  Pe class (low/medium/high; poor): high

## COc1ccc(SCCCNCCCCC2(O)CC2)cc1 [11c, 1-(4-((3-((4-Methoxyphenyl)thio)propyl)amino)butyl)cyclopropan-1-ol]
[1]
  SERCA2a HL-1 effect class: ++
[2]
  Pe: 6.9 10^–6 cm/s
  Pe class (low/medium/high; poor): high

## COc1ccc2c(c1)CN(CCCCC1(O)CC1)CCS2 [11d, 1-(4-(7-Methoxy-2,3-dihydrobenzo[1,4-f]thiazepin-4(5H)-yl)butyl)cyclopropan-1-ol]
[1]
  SERCA2a HL-1 effect class: +
[1]; HL-1 cells, 10 mM caffeine
  effect on caffeine-induced Ca2+ release (in words): least efficacious; also recorded: no saturation effect at concentrations up to 50 μM; also recorded: slight
[2]
  Pe: 3.6 10^–6 cm/s
  Pe class (low/medium/high; poor): high

## COc1ccc2c(c1)CN(CCCCN(CCCCC1(O)CC1)CCCCC1(O)CC1)CCS2 [12a, 1,1′-(((4-(7-Methoxy-2,3-dihydrobenzo[1,4-f]thiazepin-4(5H)-yl)butyl)azanediyl)bis(butane-4,1-diyl))bis(cyclopropan-1-ol)]
[1]
  SERCA2a HL-1 effect class: ++
[1]; HL-1 cells, 10 mM caffeine, value, interval
  EC50: 9.2 µM
[2]
  Pe: 0.6 10^–6 cm/s
  Pe class (low/medium/high; poor): poor permeability and low

## COc1ccc(SCCCN(CCCCC2(O)CC2)CCCCC2(O)CC2)cc1 [12c, 1,1′-(((3-((4-Methoxyphenyl)thio)propyl)azanediyl)bis(butane-4,1-diyl))bis(cyclopropan-1-ol)]
[1]
  SERCA2a HL-1 effect class: +++ and ++
[1]; HL-1 cells, 10 mM caffeine
  effect on caffeine-induced Ca2+ release (in words): most efficacious; also recorded: stronger activating effect on caffeine-induced Ca^2+ release at concentrations above 10 μM
[2]
  Pe: 3.6 10^–6 cm/s
  Pe class (low/medium/high; poor): high

## COc1ccc2c(c1)CN(Cc1ccc(C(=O)O)cc1)CCS2 [ARM210, reference compound]
[1]
  SERCA2a HL-1 effect class: +
[1]; HL-1 cells, 10 mM caffeine
  effect on caffeine-induced Ca2+ release (in words): clear concentration-dependent effect
[2]
  Pe: 6.8 10^–6 cm/s
  Pe class (low/medium/high; poor): high
